Data published in the supplement of paper PMC11562712.

Assay: first-order primary biodegradation rate constant k (sorption-corrected, fDis-corrected) (d-1); higher = faster biodegradation
Description: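 Modified OECD 309 water-sediment test. River water plus sieved sediment (50 g wet solid/L) from European river segments (DE, CH, ES, EL) was spiked with a mixture of 129 compounds at 1 ug/L each and incubated in the dark at river temperature for 10 days. The water phase was analysed by UHPLC-Orbitrap-MS. The first-order primary biodegradation rate constant k (d-1) is k_observed, corrected for dissipation in sterile sorption controls and divided by the dissolved fraction fDis; it was fitted over 3 replicate incubations. Invalid fits (p > 0.05, n < 5, not available, concentration increase) are excluded.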

[1] = river segment: Germany (DE) T_Contam, incubation temperature 24 °C
[2] = river segment: Germany (DE) T_Pris, incubation temperature 24 °C
[3] = river segment: Greece (EL) A_Contam, incubation temperature 19 °C
[4] = river segment: Greece (EL) G_Pris, incubation temperature 19 °C
[5] = river segment: Greece (EL) L_Contam, incubation temperature 19 °C
[6] = river segment: Spain (ES) B_Contam, incubation temperature 24 °C
[7] = river segment: Spain (ES) C_Contam, incubation temperature 24 °C
[8] = river segment: Spain (ES) L_Contam, incubation temperature 24 °C
[9] = river segment: Switzerland (CH) C_Contam, incubation temperature 17 °C
[10] = river segment: Switzerland (CH) R_Contam, incubation temperature 17 °C
[11] = river segment: Switzerland (CH) U_Contam, incubation temperature 17 °C
[12] = river segment: Switzerland (CH) U_Pris, incubation temperature 17 °C
[13] = river segment: Germany (DE) H_Contam, incubation temperature 24 °C
[14] = river segment: Greece (EL) G_Contam, incubation temperature 19 °C
[15] = river segment: Spain (ES) F_Pris_Salt, incubation temperature 24 °C

first-order primary biodegradation rate constant k [1]	first-order primary biodegradation rate constant k [2]	first-order primary biodegradation rate constant k [3]	first-order primary biodegradation rate constant k [4]	first-order primary biodegradation rate constant k [5]	first-order primary biodegradation rate constant k [6]	first-order primary biodegradation rate constant k [7]	first-order primary biodegradation rate constant k [8]	first-order primary biodegradation rate constant k [9]	first-order primary biodegradation rate constant k [10]	first-order primary biodegradation rate constant k [11]	first-order primary biodegradation rate constant k [12]	first-order primary biodegradation rate constant k [13]	first-order primary biodegradation rate constant k [14]	first-order primary biodegradation rate constant k [15]	Structure (SMILES)
0.512	0.0857	0.193	0.133	0.21	0.0276	0.0263	0.0585	0.0196	0.0447	0.0845	0.0682				c1ccc([C@H]2CN3CCSC3=N2)cc1 [Levamisole]
0.00344		0.0177	0.00116	0.0298	0.0307	0.287	0.118	0.00975	0.00379	0.0121	0.0138	0.0105			CCN(CC)CC(=O)Nc1c(C)cccc1C [Lidocaine]
0.352	0.336		0.293	1.27	0.569	0.414	0.28	0.326	0.309	0.473	0.772	0.341	0.37	0.144	CC(C)NCC(O)COc1ccc(COCCOC(C)C)cc1 (stereo not given) [Bisoprolol]
	0.259	1.21	1.17	0.81	0.646	0.00288	1.5	0.0717	0.119		0.0554	0.0753	1.63	0.0294	Nc1ccc(S(=O)(=O)Nc2nccs2)cc1 [Sulfathiazole]
		0.821							0.0625						NC(=O)c1cccnc1 [Nicotinamide]
0.275	0.0361	0.258	0.138	0.096	0.211	0.115	0.203	0.0585	0.123	0.167	0.146	0.251	0.16		Cc1ccc(C(C)NC(=O)[C@@H](NC(=O)OC(C)C)C(C)C)cc1 (stereo not given in full) [Iprovalicarb]
0.0182												0.0136			NS(=O)(=O)c1cc(C2(O)NC(=O)c3ccccc32)ccc1Cl (stereo not given) [Chlorthalidone]

The next lines start with the compound.

Structure (SMILES)	first-order primary biodegradation rate constant k [1]	first-order primary biodegradation rate constant k [2]	first-order primary biodegradation rate constant k [3]	first-order primary biodegradation rate constant k [4]	first-order primary biodegradation rate constant k [5]	first-order primary biodegradation rate constant k [6]	first-order primary biodegradation rate constant k [7]	first-order primary biodegradation rate constant k [8]	first-order primary biodegradation rate constant k [9]	first-order primary biodegradation rate constant k [10]	first-order primary biodegradation rate constant k [11]	first-order primary biodegradation rate constant k [12]	first-order primary biodegradation rate constant k [13]	first-order primary biodegradation rate constant k [14]	first-order primary biodegradation rate constant k [15]
Cc1cc(O)cc(C)c1Cl [4-Chloro-3,5-dimethylphenol]	2.27	1.68	2.03	3.52	3.5		2.41	4.19				4.31	1.4	0.169	0.228
COc1ccc(NC(=O)N(C)C)cc1Cl [Metoxuron]	0.106	0.0159	0.209	0.333	0.0742			0.0285			0.022		0.0437	0.0278	
O=[N+]([O-])c1ccc(Cc2ccncc2)cc1 [4-(4-Nitrobenzyl)pyridine]	1.05	0.446	1.09		1.94	0.863	0.301	1.1	0.314	0.45	1.95	2.28	0.499	1.68	0.146
CCCOC(=O)c1ccc(O)cc1 [Propylparaben]		1.42					2.24	4.24					2.67		0.275
N#Cc1cc(Br)c(O)c(Br)c1 [Bromoxynil]	0.133				0.0249			0.0939				0.0852			
CC(C)N(C(=O)CCl)c1ccccc1 [Propachlor]	0.812	0.308	0.575		0.985	1.07	0.218	0.809	0.33	0.429	0.649	0.552	0.302	0.271	0.212
CC(C)c1ccc(NC(=O)N(C)C)cc1 [Isoproturon]	0.0814		0.072	0.111	0.0309		0.0102	0.0402			0.0187	0.0209	0.0107		
